Measured values published in ChEMBL document CHEMBL6182883, “Discovery of a series of novel 3-sulfonamido benzoic acid derivatives as promising P2Y14R antagonists for acute lung injury” (Eur J Med Chem, 2025).
≈ marks a conversion by molar mass, not a printed value. Calls of active or inactive are those of the source. No cut-off for these calls is given here.

Columns and labels:
Mus musculus [1] = test: Antiinflammatory activity in LPS-induced C57BL/6 mouse ALI model assessed as reduction in interstitial hemorrhage at 2 mg/kg, po administered once daily via gavage for 7 days followed by endotoxin challenge at 1 hr post last dose and subsequent LPS stimulation and measured after 24 hrs by H and E staining based histopathological assay; type: functional, organism-based; details: time 8.0 day
Mus musculus [2] = test: Antiinflammatory activity in LPS-induced C57BL/6 mouse ALI model assessed as reduction in inflammatory response in lung administered once daily via oral gavage for 7 days followed by endotoxin challenge at 1 hr post last dose and subsequent LPS stimulation and measured after 24 hrs by H and E staining based histopathological assay; type: functional, organism-based; details: dose 2-6 mg/kg, time 8.0 day
[3] = target: T1, P2Y purinoceptor 14 (Homo sapiens) (UniProt Q15391); test: (§1) Binding affinity to P2Y14R (unknown origin) assessed as increase in response unit by surface plasmon resonance assay; details: filed as antagonist
T1 sequence (whole entry): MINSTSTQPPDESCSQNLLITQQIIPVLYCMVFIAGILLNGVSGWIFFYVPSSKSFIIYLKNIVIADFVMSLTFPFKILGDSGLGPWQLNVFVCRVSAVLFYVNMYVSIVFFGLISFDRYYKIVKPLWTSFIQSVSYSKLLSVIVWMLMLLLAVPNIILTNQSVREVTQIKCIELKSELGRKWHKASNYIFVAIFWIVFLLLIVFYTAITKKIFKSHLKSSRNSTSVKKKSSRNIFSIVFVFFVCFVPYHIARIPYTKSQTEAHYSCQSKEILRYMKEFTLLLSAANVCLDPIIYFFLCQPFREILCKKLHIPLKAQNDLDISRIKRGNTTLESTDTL

P2Y purinoceptor 14 [4] = target: T2, P2Y purinoceptor 14 (Homo sapiens, UniProt Q15391); test: as §1
T2 sequence (Q15391 whole entry): T1 sequence (whole entry)

Mus musculus [5] = test: Antiinflammatory activity in LPS-induced C57BL/6 mouse ALI model assessed as reduction in alveolar wall thickening at 6 mg/kg, po administered once daily via gavage for 7 days followed by endotoxin challenge at 1 hr post last dose and subsequent LPS stimulation and measured after 24 hrs by H and E staining based histopathological assay; type: functional, organism-based; details: time 8.0 day
Mus musculus [6] = test: Antiinflammatory activity in LPS-induced C57BL/6 mouse ALI model assessed as reduction in interstitial hemorrhage at 6 mg/kg, po administered once daily via gavage for 7 days followed by endotoxin challenge at 1 hr post last dose and subsequent LPS stimulation and measured after 24 hrs by H and E staining based histopathological assay; type: functional, organism-based; details: time 8.0 day
Mus musculus [7] = test: Antiinflammatory activity in LPS-induced C57BL/6 mouse ALI model assessed as reduction in neutrophil infiltration at 2 mg/kg, po administered once daily via gavage for 7 days followed by endotoxin challenge at 1 hr post last dose and subsequent LPS stimulation and measured after 24 hrs by H and E staining based histopathological assay; type: functional, organism-based; details: time 8.0 day
[8] = target: T1, P2Y purinoceptor 14 (Homo sapiens); test: Antagonist activity at human P2Y14R expressed in HEK293 cells assessed as inhibition of UDPG-induced Ca2+ level at 5 uM by Fluo-4 dye based fluorescence assay relative to control; type: functional, cell-based; details: filed as antagonist
[9] = AUC (0 to 24 hrs) in SD […] at 10 mg/kg, po; type: ADME, organism-based; details: in vivo
Mus musculus [10] = test: Antiinflammatory activity in LPS-induced C57BL/6 mouse ALI model assessed as reduction in TNF-alpha expression in BALF at 2 to 6 mg/kg, po administered once daily via gavage for 7 days followed by endotoxin challenge at 1 hr post last dose and subsequent LPS stimulation and measured after 24 hrs by ELISA; type: functional, organism-based; details: dose 2-6 mg/kg, time 8.0 day
[11] = Half life in SD […] at 10 mg/kg, po; type: ADME, organism-based; details: in vivo
[12] = AUC (0 to 24 hrs) in SD […] at 5 mg/kg, iv; type: ADME, organism-based; details: in vivo
[13] = Aqueous solubility of the compound in pH 4 PBS buffer measured after 24 hrs by shake flask method; type: physicochemical
[14] = Oral bioavailability in SD […] at 10 mg/kg; type: ADME, organism-based; details: in vivo
Mus musculus [15] = test: Antiinflammatory activity in LPS-induced C57BL/6 mouse ALI model assessed as reduction in IL-1beta expression in BALF at 2 to 6 mg/kg, po administered once daily via gavage for 7 days followed by endotoxin challenge at 1 hr post last dose and subsequent LPS stimulation and measured after 24 hrs by ELISA; type: functional, organism-based; details: dose 2-6 mg/kg, time 8.0 day
Mus musculus [16] = test: Antiinflammatory activity in LPS-induced C57BL/6 mouse ALI model assessed as reduction in IL-6 expression in BALF at 2 to 6 mg/kg, po administered once daily via gavage for 7 days followed by endotoxin challenge at 1 hr post last dose and subsequent LPS stimulation and measured after 24 hrs by ELISA; type: functional, organism-based; details: dose 2-6 mg/kg, time 8.0 day
Mus musculus [17] = test: Antiinflammatory activity in LPS-induced C57BL/6 mouse ALI model assessed as reduction in MPO level in BALF at 6 mg/kg, po administered once daily via gavage for 7 days followed by endotoxin challenge at 1 hr post last dose and subsequent LPS stimulation and measured after 24 hrs by ELISA; type: functional, organism-based; details: time 8.0 day
[18] = Cmax in SD […] at 5 mg/kg, iv; type: ADME, organism-based; details: in vivo
[19] = Cmax in SD […] at 10 mg/kg, po; type: ADME, organism-based; details: in vivo
[20] = Clearance in SD […] at 10 mg/kg, po; type: ADME, organism-based; details: in vivo
Mus musculus [21] = test: Antiinflammatory activity in LPS-induced C57BL/6 mouse ALI model assessed as appearance of intact alveolar structures at 6 mg/kg, po administered once daily via gavage for 7 days followed by endotoxin challenge at 1 hr post last dose and subsequent LPS stimulation and measured after 24 hrs by H and E staining based histopathological assay; type: functional, organism-based; details: time 8.0 day
[22] = Tmax in SD […] at 10 mg/kg, po; type: ADME, organism-based; details: in vivo
[23] = Tmax in SD […] at 5 mg/kg, iv; type: ADME, organism-based; details: in vivo
P2Y purinoceptor 14 [24] = target: T2, P2Y purinoceptor 14; test: Antagonist activity at human P2Y14R expressed in HEK293 cells assessed as inhibition of UDPG-induced Ca2+ level by Fluo-4 dye based fluorescence assay; type: functional, cell-based
[25] = Aqueous solubility of the compound in pH 7.4 PBS buffer measured after 24 hrs by shake flask method; type: physicochemical
Mus musculus [26] = test: Antiinflammatory activity in LPS-induced C57BL/6 mouse ALI model assessed as reduction in neutrophil infiltration at 6 mg/kg, po administered once daily via gavage for 7 days followed by endotoxin challenge at 1 hr post last dose and subsequent LPS stimulation and measured after 24 hrs by H and E staining based histopathological assay; type: functional, organism-based; details: time 8.0 day
[27] = Half life in SD […] at 5 mg/kg, iv; type: ADME, organism-based; details: in vivo

With `O=C(O)c1cc(NS(=O)(=O)CCc2ccc(C(F)(F)F)cc2)cc(-c2ccc(C3CCNCC3)cc2)c1` as the molecule, how does the Activity (Mus musculus [1]) read?
The Activity was “Not active; No Significant Interstitial Hemorrhage Observed”.

And the Activity (Mus musculus [2])?
The Activity was “Dose-dependent-effect”.

What about the Activity [3] of the same molecule?
The Activity was “Dose-dependent-effect”.

What about the Kd (P2Y purinoceptor 14 [4]) of the same molecule?
Its Kd is 1730 nM.

And the Activity (Mus musculus [5])?
Its Activity is “Active”.

And the Activity (Mus musculus [6])?
The Activity was “Active; Substantial Reduction Observed”.

What about the Activity (Mus musculus [7]) of the same molecule?
The Activity was “Active”.

And the inhibition [8]?
The inhibition was 99.6%.

And the AUC(0-t) [9]?
Its AUC(0-t) is 2170 ng·h/mL.

And the Activity (Mus musculus [10])?
Its Activity is “Active”.

What about the half-life [11] of the same molecule?
Its half-life is 4.5 h.

What about the AUC [12] of the same molecule?
Its AUC is 1764 ng·h/mL.

What about the solubility thermodynamic at 24 h [13] of the same molecule?
The solubility thermodynamic at 24 h was 127 µg/mL (≈ 238 µM).

And the bioavailability [14]?
Its bioavailability is 44%.

And the Activity (Mus musculus [15])?
The Activity was “Active”.

And the Activity (Mus musculus [16])?
The Activity was “Active”.

And the Activity (Mus musculus [17])?
The Activity was “Active”.

What about the Cmax [18] of the same molecule?
Its Cmax is 731 ng/mL.

And the Cmax [19]?
The Cmax was 984 ng/mL.

What about the CL/F [20] of the same molecule?
The CL/F was 18.6 mL/min/kg.

What about the Activity (Mus musculus [21]) of the same molecule?
The Activity was “Active”.

And the Tmax [22]?
The Tmax was 1.55 h.

What about the Tmax [23] of the same molecule?
Its Tmax is 0.933 h.

And the IC50 (P2Y purinoceptor 14 [24])?
The IC50 was 5.6 nM.

What about the solubility thermodynamic at 24 h [25] of the same molecule?
The solubility thermodynamic at 24 h was 108 µg/mL (≈ 203 µM).

And the Activity (Mus musculus [26])?
The Activity was “Active”.

What about the half-life [27] of the same molecule?
The half-life was 2.6 h.
